The values below come from article PMC2765055 (Bioorganic & medicinal chemistry, 2009).

Data set [1] concerns EBV. The data set can be described thus: EBV DNA hybridization assay in Akata cells. In kind it is cell-based, Epstein-Barr virus.
Data set [2] in a line: Cytotoxicity, EBV/Akata column. The format is cell-based. The following applies: human, Akata cells.
In data set [3] the test system is HFF cells. The settings on record: read-out: CC50 HCMV/HFF Towne; visual cytotoxicity of HFF; cited from earlier work.
The subject of data set [4] is HCMV AD169 strain. The settings on record: read-out: EC50 HCMV/HFF AD169, plaque reduction; cited from earlier work.
For data set [5], the system named is HFF cells. The settings on record: neutral red uptake, cited from earlier work.
Data set [6] relates to MEF. The settings on record: read-out: CC50 MCMV/MEF; cited from earlier work.
In data set [7] the test system is EBV. The following applies: read-out: EC50 EBV/Akata; DNA hybridization assay; cited from earlier work.
The subject of data set [8] is HSV-1. The settings on record: read-out: EC50 HSV-1/BSC-1; ELISA in BSC-1 cells; cited from earlier work. In general terms: An ELISA detects its analyte on a solid surface through an enzyme-linked reagent.
Data set [9] deals with KB cells. The following applies: read-out: CC50 HSV-1/BSC-1; replicating KB cells; cited from earlier work.
The subject of data set [10] is HSV-1. The following applies: read-out: EC50 HSV-1/HFF; CPE assay; cited from earlier work.
Data set [11] has as its system HSV-2. The following applies: read-out: EC50 HSV-2/HFF; CPE assay; cited from earlier work.
Data set [12] deals with VZV. The settings on record: cited from earlier work; for EC50: read-out: EC50 VZV/HFF, CPE assay.
For data set [13], the system named is EBV. The following applies: read-out: EC50 EBV; Daudi cells, viral capsid antigen (VCA) assay; cited from earlier work.
Data set [14] relates to HSV-1. The following applies: read-out: EC50 HSV-1/BSC-1; plaque reduction in BSC-1 cells; cited from earlier work.
Data set [15] deals with hepatitis B virus (HBV). The following applies: cited from earlier work.
The nature of data set [16]: Cytotoxicity by neutral red uptake. The format is cell-based. The settings on record: human, HFF cells.
Data set [17] relates to HFF cells. The experiment in a line: Cytotoxicity by neutral red uptake. In kind it is cell-based. The following applies: read-out: CC50 HSV-1/HFF; neutral red uptake, HSV-1/HFF column.
In data set [18] the test system is HCMV Towne strains with mutations in UL97. The experiment in a line: HCMV Towne strains with UL97 mutations. The following applies: strains E8 and 2696r. The format is cell-based, human cytomegalovirus.
The nature of data set [19]: Visual cytotoxicity of HFF's in cells unaffected by virus. The format is cell-based. The following applies: human, HFF cells (not affected by virus).
A short description of data set [20]: Cytotoxicity in replicating KB cells. The following applies: human. The format is cell-based.
Data set [21] has as its system HCMV, MCMV, HSV-1, HSV-2, VZV, EBV, HBV, HCV. The experiment in a line: Antiviral panel, all tested viruses. The format is cell-based.
Data set [22] relates to VZV. The experiment in a line: VZV CPE assay in HFF. In kind it is cell-based, varicella zoster virus.
For data set [23], the system named is hepatitis B virus (HBV). The experiment in a line: HBV antiviral test. In kind it is cell-based.
Data set [24] deals with hepatitis C virus (HCV). The experiment in a line: HCV antiviral test. The format is cell-based.
Data set [25] deals with HSV-1. The experiment in a line: HSV-1 CPE inhibition assay in HFF. The following applies: Human alphaherpesvirus 1, read-out: EC50 HSV-1/HFF. The format is cell-based, herpes simplex virus type 1.
The subject of data set [26] is HSV-2. The experiment in a line: HSV-2 CPE inhibition assay in HFF. The following applies: Human alphaherpesvirus 2, read-out: EC50 HSV-2/HFF. In kind it is cell-based, herpes simplex virus type 2.
Data set [27] in a line: Cytotoxicity, MCMV/MEF column. The format is cell-based. The settings on record: mouse, MEF cells.
The mark [28] stands for this setting: read-out: CC50 HCMV/HFF AD169, AD169 column.
Where [29] appears, read: read-out: CC50 HSV-1/HFF, HSV-1/HFF column.

Entries after “also recorded” stand apart in the source; their conditions may differ. Where two headings read alike, the source gives them in different places.

As for `Nc1nc2c(ncn2COCCO)c(=O)[nH]1` [Acyclovir, acyclovir], the EC50 in [1] (human gammaherpesvirus 4, Akata, read-out: EC50 EBV/Akata) was 8.4 µM. The same compound came in with a CC50 in [2] of over 100 µM.

Consider `Nc1nc2c(ncn2/C=C2/CC2(CO)CO)c(=O)[nH]1` [Compound 2b, cyclopropavir], for which the CC50 in [3] is over 100 µM; in data set [5] (setting [28]), over 380 µM; in data set [5] (setting [29]) it was over 380 µM; in [6], over 380 µM; in data set [9], over 100 µM. Also, the EC50 in data set [4] is 0.49 µM; in [7], 0.22 µM; in data set [8] it was over 100 µM; in [10], over 380 µM; in data set [11], over 380 µM; in data set [12], over 380 µM. Also, the “activity against VZV” value in data set [12] (HFF) is recorded as “ineffective”.

Consider `Nc1nc(O)c2ncn(/C=C3/CC34COP(=O)(O)OC4)c2n1` (stereo not shown) [Compound 10], for which the CC50 in data set [3] is over 100 µM; in data set [5] (setting [28]) it was over 301 µM; in [5] (setting [29]), over 301 µM; in data set [6] it was over 301 µM; in data set [9], over 100 µM. Also, the EC50 is 6 µM in data set [4]; 0.96 µM in data set [13]; 20 µM in [14]; over 301 µM in [10]; over 301 µM in data set [12]. For the same compound, in data set [15], the “activity against HBV” value is given as “effective”.

As to `Nc1nc2c(ncn2/C=C2/CC2(CO)CCP(=O)(O)O)c(=O)[nH]1` (stereo not drawn) [Compound 12, (Z)-9-{[2-(Hydroxymethy)l-2-(2-phosphonoethyl)cyclopropylidene]methyl}guanine], the CC50 in data set [16] and in data set [17] was over 300 µM each time. Moreover, the “activity against UL97 mutant strains compared with wild-type Towne HCMV” value in data set [18] was “as active”.

`Nc1nc2c(ncn2/C=C2\CC2(CO)CCP(=O)(O)O)c(=O)[nH]1` (stereo not drawn) [Compound 13, (E)-9-{[2-(Hydroxymethy)l-2-(2-phosphonoethyl)cyclopropylidene]methyl}guanine]: the CC50 in [19], in data set [2] and in data set [20] was over 100 µM throughout. Besides, the “antiviral activity against all tested viruses” value in data set [21] was “devoid of potency; also recorded: devoid of antiviral activity”.

Regarding `Nc1nc2c(ncn2/C=C2/CC23CCP(=O)(O)OC3)c(=O)[nH]1` (stereo not shown) [Compound 14], in data set [1] (Akata cells), the “activity against EBV” value is “inactive; also recorded: ineffective”. Besides, the “activity against VZV” value in [22] (HFF) is “ineffective”. Moreover, the “activity against HBV” value in [23] is “inactive”. Also, the “activity against HCV” value in [24] is “inactive”. Moreover, the “activity against UL97 mutant strains compared with wild-type Towne HCMV” value in data set [18] is on record as “as active”.

On to `Nc1nc2c(ncn2/C=C2\CC23CCP(=O)(O)OC3)c(=O)[nH]1` (stereo not shown) [Compound 15], for which the CC50 in [19] is over 100 µM; in [16], over 300 µM; in data set [17], over 300 µM; in data set [2], over 100 µM; in [20] it was over 100 µM. The EC50 in [25] is over 300 µM; in data set [26], over 300 µM; in [22] (Human alphaherpesvirus 3, read-out: EC50 VZV/HFF), over 300 µM. Moreover, in data set [21], the “antiviral activity against all tested viruses” value is listed as “devoid of potency; also recorded: devoid of antiviral activity”.

On to `Nc1nc(O)c2ncn(COC(CO)CO)c2n1` [Ganciclovir, ganciclovir], for which the CC50 in data set [19], in [16] and in data set [27] was over 100 µM throughout.
